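Cultured in 96-well plates, cells were exposed to test compound for 48 hours across five concentrations. Abbreviation: GI50, concentration required for 50% inhibition of growth. TGI is the concentration that stops growth completely.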
Legend:
Experiment in all cases: NCI anticancer screen, dose series, 48 h
786-0 renal = test system: 786-0 renal
A498 renal = test system: A498 renal
A549 NSCLC = test system: A549 NSCLC
ACHN renal = test system: ACHN renal
BT-549 breast = test system: BT-549 breast
CAKI-1 renal = test system: CAKI-1 renal
CCRF-CEM leukemia = test system: CCRF-CEM leukemia
COLO 205 colon = test system: COLO 205 colon
DU-145 prostate = test system: DU-145 prostate
EKVX NSCLC = test system: EKVX NSCLC
HCC-2998 colon = test system: HCC-2998 colon
HCT-116 colon = test system: HCT-116 colon
HCT-15 colon = test system: HCT-15 colon
HL-60(TB) leukemia = test system: HL-60(TB) leukemia
HOP-62 NSCLC = test system: HOP-62 NSCLC
HOP-92 NSCLC = test system: HOP-92 NSCLC
HS 578T breast = test system: HS 578T breast
HT29 colon = test system: HT29 colon
IGROV1 ovarian = test system: IGROV1 ovarian
K-562 leukemia = test system: K-562 leukemia
KM12 colon = test system: KM12 colon
LOX IMVI melanoma = test system: LOX IMVI melanoma
M14 melanoma = test system: M14 melanoma
MALME-3M melanoma = test system: MALME-3M melanoma
MCF7 breast = test system: MCF7 breast
MDA-MB-231 breast = test system: MDA-MB-231 breast
MDA-MB-435 = test system: MDA-MB-435
MDA-MB-468 breast = test system: MDA-MB-468 breast
MOLT-4 leukemia = test system: MOLT-4 leukemia
NCI-H226 lung = test system: NCI-H226 lung
NCI-H23 lung = test system: NCI-H23 lung
NCI-H460 lung = test system: NCI-H460 lung
NCI-H522 lung = test system: NCI-H522 lung
NCI/ADR-RES ovarian = test system: NCI/ADR-RES ovarian
OVCAR-3 ovarian = test system: OVCAR-3 ovarian
OVCAR-4 ovarian = test system: OVCAR-4 ovarian
OVCAR-5 ovarian = test system: OVCAR-5 ovarian
OVCAR-8 ovarian = test system: OVCAR-8 ovarian
PC-3 prostate = test system: PC-3 prostate
RPMI-8226 leukemia = test system: RPMI-8226 leukemia
RXF 393 renal = test system: RXF 393 renal
SF-268 CNS = test system: SF-268 CNS
SF-295 CNS = test system: SF-295 CNS
SF-539 CNS = test system: SF-539 CNS
SK-MEL-2 melanoma = test system: SK-MEL-2 melanoma
SK-MEL-28 melanoma = test system: SK-MEL-28 melanoma
SK-MEL-5 melanoma = test system: SK-MEL-5 melanoma
SK-OV-3 ovarian = test system: SK-OV-3 ovarian
SN12C renal = test system: SN12C renal
SNB-19 CNS = test system: SNB-19 CNS
SNB-75 CNS = test system: SNB-75 CNS
SR leukemia = test system: SR leukemia
SW-620 colon = test system: SW-620 colon
T-47D breast = test system: T-47D breast
TK-10 renal = test system: TK-10 renal
U251 CNS = test system: U251 CNS
UACC-257 melanoma = test system: UACC-257 melanoma
UACC-62 melanoma = test system: UACC-62 melanoma
UO-31 renal = test system: UO-31 renal

With `CSc1nc(-c2cccc(C)c2)c2cc(-c3ccccc3)n(C)c2n1` the GI50 (786-0 renal) was 14.5 µM, the TGI (786-0 renal) was 47.8 µM and the GI50 (A498 renal) was 27 µM. The TGI (A498 renal) was 94.9 µM, the GI50 (A549 NSCLC) was 7.01 µM and the TGI (A549 NSCLC) was greater than 100 µM. For the same compound, the GI50 (ACHN renal) was 12.9 µM, the TGI (ACHN renal) was 75.1 µM and the GI50 (BT-549 breast) was 7.11 µM. The TGI (BT-549 breast) was 33.5 µM, the GI50 (CAKI-1 renal) was 5.08 µM and the TGI (CAKI-1 renal) was greater than 100 µM. The GI50 (CCRF-CEM leukemia) was 4 µM, the TGI (CCRF-CEM leukemia) was 36.1 µM and the GI50 (COLO 205 colon) was 7.28 µM. It also gave a TGI (COLO 205 colon) of 26.9 µM, a GI50 (DU-145 prostate) of 18.1 µM and a TGI (DU-145 prostate) greater than 100 µM. For the same compound, the GI50 (EKVX NSCLC) was 4.88 µM, the TGI (EKVX NSCLC) was 39.1 µM and the GI50 (HCC-2998 colon) was 13.9 µM. It also gave a TGI (HCC-2998 colon) of 60.8 µM, a GI50 (HCT-116 colon) of 4.17 µM and a TGI (HCT-116 colon) of 21.7 µM. For the same compound, the GI50 (HCT-15 colon) was 4.9 µM, the TGI (HCT-15 colon) was 24.8 µM and the GI50 (HL-60(TB) leukemia) was 3.54 µM. It also gave a TGI (HL-60(TB) leukemia) of 35.4 µM, a GI50 (HOP-62 NSCLC) of 8.77 µM and a TGI (HOP-62 NSCLC) of 48.9 µM. For the same compound, the GI50 (HOP-92 NSCLC) was 3.92 µM, the TGI (HOP-92 NSCLC) was 30.7 µM and the GI50 (HS 578T breast) was 7 µM. The TGI (HS 578T breast) was 78.1 µM, the GI50 (HT29 colon) was 3.98 µM and the TGI (HT29 colon) was 25.4 µM. The GI50 (IGROV1 ovarian) was 6.43 µM, the TGI (IGROV1 ovarian) was greater than 100 µM and the GI50 (K-562 leukemia) was 3.13 µM. It also gave a TGI (K-562 leukemia) greater than 100 µM, a GI50 (KM12 colon) of 5.41 µM and a TGI (KM12 colon) of 64.7 µM. It also gave a GI50 (LOX IMVI melanoma) of 5.44 µM, a TGI (LOX IMVI melanoma) of 19.4 µM and a GI50 (M14 melanoma) of 4.56 µM. It also gave a TGI (M14 melanoma) of 51.4 µM, a GI50 (MALME-3M melanoma) of 9.16 µM and a TGI (MALME-3M melanoma) of 38.2 µM. The GI50 (MCF7 breast) was 5.88 µM, the TGI (MCF7 breast) was 41.8 µM and the GI50 (MDA-MB-231 breast) was 7.42 µM. The TGI (MDA-MB-231 breast) was 30.2 µM, the GI50 (MDA-MB-435) was 2.86 µM and the TGI (MDA-MB-435) was 8.45 µM. For the same compound, the GI50 (MDA-MB-468 breast) was 3.08 µM, the TGI (MDA-MB-468 breast) was 15.6 µM and the GI50 (MOLT-4 leukemia) was 4.47 µM. The TGI (MOLT-4 leukemia) was 37.7 µM, the GI50 (NCI-H226 lung) was 12.8 µM and the TGI (NCI-H226 lung) was 50 µM. For the same compound, the GI50 (NCI-H23 lung) was 12.2 µM, the TGI (NCI-H23 lung) was 68 µM and the GI50 (NCI-H460 lung) was 3.98 µM. For the same compound, the TGI (NCI-H460 lung) was 19.1 µM, the GI50 (NCI-H522 lung) was 3.41 µM and the TGI (NCI-H522 lung) was 17.2 µM. For the same compound, the GI50 (NCI/ADR-RES ovarian) was 3.58 µM, the TGI (NCI/ADR-RES ovarian) was 30.9 µM and the GI50 (OVCAR-3 ovarian) was 4.31 µM. The TGI (OVCAR-3 ovarian) was 30.7 µM, the GI50 (OVCAR-4 ovarian) was 20.5 µM and the TGI (OVCAR-4 ovarian) was greater than 100 µM. It also gave a GI50 (OVCAR-5 ovarian) of 18.6 µM, a TGI (OVCAR-5 ovarian) greater than 100 µM and a GI50 (OVCAR-8 ovarian) of 16.3 µM. It also gave a TGI (OVCAR-8 ovarian) greater than 100 µM, a GI50 (PC-3 prostate) of 7.9 µM and a TGI (PC-3 prostate) greater than 100 µM. It also gave a GI50 (RPMI-8226 leukemia) of 4.82 µM, a TGI (RPMI-8226 leukemia) of 37.8 µM and a GI50 (RXF 393 renal) of 7.91 µM. The TGI (RXF 393 renal) was 47 µM, the GI50 (SF-268 CNS) was 11.2 µM and the TGI (SF-268 CNS) was 51.1 µM. For the same compound, the GI50 (SF-295 CNS) was 5.06 µM, the TGI (SF-295 CNS) was 18.2 µM and the GI50 (SF-539 CNS) was 6.35 µM. The TGI (SF-539 CNS) was 21.8 µM, the GI50 (SK-MEL-2 melanoma) was 3.62 µM and the TGI (SK-MEL-2 melanoma) was 17.5 µM. It also gave a GI50 (SK-MEL-28 melanoma) of 12.2 µM, a TGI (SK-MEL-28 melanoma) of 97.7 µM and a GI50 (SK-MEL-5 melanoma) of 3.59 µM. It also gave a TGI (SK-MEL-5 melanoma) of 12.8 µM, a GI50 (SK-OV-3 ovarian) of 11.2 µM and a TGI (SK-OV-3 ovarian) of 52.1 µM. For the same compound, the GI50 (SN12C renal) was 10.7 µM, the TGI (SN12C renal) was 44.7 µM and the GI50 (SNB-19 CNS) was 14.6 µM. It also gave a TGI (SNB-19 CNS) of 93.6 µM, a GI50 (SNB-75 CNS) of 3.17 µM and a TGI (SNB-75 CNS) of 27.4 µM. The GI50 (SR leukemia) was 3.17 µM, the TGI (SR leukemia) was greater than 100 µM and the GI50 (SW-620 colon) was 4.87 µM. The TGI (SW-620 colon) was greater than 100 µM, the GI50 (T-47D breast) was 4.59 µM and the TGI (T-47D breast) was 41.3 µM. For the same compound, the GI50 (TK-10 renal) was 28.8 µM, the TGI (TK-10 renal) was 91.9 µM and the GI50 (U251 CNS) was 4.65 µM. For the same compound, the TGI (U251 CNS) was 33.8 µM, the GI50 (UACC-257 melanoma) was 16.7 µM and the TGI (UACC-257 melanoma) was 50.4 µM. For the same compound, the GI50 (UACC-62 melanoma) was 3.99 µM, the TGI (UACC-62 melanoma) was 17.9 µM and the GI50 (UO-31 renal) was 6.78 µM. The TGI (UO-31 renal) was 67 µM.
